Measurements: the NIST ThermoML archive (doi:10.1021/je700428f)
Numbers after ± are expanded uncertainties.

Assay: xn = mol fraction of the nth substance listed
Conditions: 101 kPa, Liquid; for viscosity: Capillary tube (Ostwald / Ubbelohde) method

COC(C)(C)C [2-methoxy-2-methylpropane] + CCCCCCCCCC
Conditions	mass density [kg/m3]	viscosity [mPa·s]
308.15 K, x1 = 0.5005	719.62 ± 0.57	–
308.15 K, x1 = 0.6066	720.2 ± 0.57	–
308.15 K, x1 = 0.6866	720.81 ± 0.56	–
308.15 K, x1 = 0.7973	721.85 ± 0.56	–
308.15 K, x1 = 0.8999	723.26 ± 0.56	–
308.15 K, x1 = 1	724.82 ± 0.56	–
313.15 K, x1 = 0.1016	–	0.654 ± 0.009
313.15 K, x1 = 0.1019	714.7 ± 0.58	–
313.15 K, x1 = 0.2002	–	0.614 ± 0.009
313.15 K, x1 = 0.2041	714.74 ± 0.58	–
313.15 K, x1 = 0.3003	–	0.572 ± 0.009
313.15 K, x1 = 0.3077	714.88 ± 0.58	–
313.15 K, x1 = 0.3999	715.03 ± 0.58	–
313.15 K, x1 = 0.4013	–	0.531 ± 0.009
313.15 K, x1 = 0.4992	–	0.491 ± 0.009
313.15 K, x1 = 0.5005	715.3 ± 0.57	–
313.15 K, x1 = 0.6005	–	0.449 ± 0.009
313.15 K, x1 = 0.6066	715.7 ± 0.57	–
313.15 K, x1 = 0.6866	716.18 ± 0.57	–
313.15 K, x1 = 0.7	–	0.404 ± 0.009
313.15 K, x1 = 0.7973	717 ± 0.57	–
313.15 K, x1 = 0.8005	–	0.362 ± 0.009
313.15 K, x1 = 0.8999	718.16 ± 0.57	–
313.15 K, x1 = 1	719.42 ± 0.56	–
318.15 K, x1 = 0.1016	–	0.614 ± 0.009
318.15 K, x1 = 0.1019	710.81 ± 0.59	–
318.15 K, x1 = 0.2002	–	0.579 ± 0.009
318.15 K, x1 = 0.2041	710.74 ± 0.59	–
318.15 K, x1 = 0.3003	–	0.54 ± 0.009
318.15 K, x1 = 0.3077	710.78 ± 0.59	–
318.15 K, x1 = 0.3999	710.82 ± 0.58	–
318.15 K, x1 = 0.4013	–	0.503 ± 0.009
318.15 K, x1 = 0.4992	–	0.462 ± 0.009
318.15 K, x1 = 0.5005	710.97 ± 0.58	–
318.15 K, x1 = 0.6005	–	0.426 ± 0.009
318.15 K, x1 = 0.6066	711.2 ± 0.58	–
318.15 K, x1 = 0.6866	711.53 ± 0.58	–
318.15 K, x1 = 0.7	–	0.383 ± 0.009
318.15 K, x1 = 0.7973	712.1 ± 0.58	–
318.15 K, x1 = 0.8999	713.01 ± 0.58	–
318.15 K, x1 = 1	713.96 ± 0.57	–
323.15 K, x1 = 0.1016	–	0.577 ± 0.009
323.15 K, x1 = 0.1019	706.89 ± 0.6	–
323.15 K, x1 = 0.2002	–	0.546 ± 0.009
323.15 K, x1 = 0.2041	706.73 ± 0.59	–
323.15 K, x1 = 0.3003	–	0.51 ± 0.009
323.15 K, x1 = 0.3077	706.65 ± 0.59	–
323.15 K, x1 = 0.3999	706.59 ± 0.59	–
323.15 K, x1 = 0.4013	–	0.476 ± 0.009
323.15 K, x1 = 0.4992	–	0.441 ± 0.009
323.15 K, x1 = 0.5005	706.6 ± 0.59	–
323.15 K, x1 = 0.6005	–	0.406 ± 0.009
323.15 K, x1 = 0.6066	706.67 ± 0.59	–
323.15 K, x1 = 0.6866	706.84 ± 0.59	–
323.15 K, x1 = 0.7	–	0.365 ± 0.009
323.15 K, x1 = 0.7973	707.18 ± 0.58	–
323.15 K, x1 = 0.8999	707.81 ± 0.58	–
328.15 K, x1 = 0.1016	–	0.546 ± 0.009
328.15 K, x1 = 0.1019	702.96 ± 0.6	–
328.15 K, x1 = 0.2002	–	0.517 ± 0.009
328.15 K, x1 = 0.2041	702.7 ± 0.6	–
328.15 K, x1 = 0.3003	–	0.483 ± 0.009
328.15 K, x1 = 0.3077	702.51 ± 0.6	–
328.15 K, x1 = 0.3999	702.33 ± 0.6	–
328.15 K, x1 = 0.4013	–	0.451 ± 0.009
328.15 K, x1 = 0.4992	–	0.418 ± 0.009
328.15 K, x1 = 0.5005	702.22 ± 0.59	–
328.15 K, x1 = 0.6005	–	0.386 ± 0.009
328.15 K, x1 = 0.6066	702.11 ± 0.59	–
328.15 K, x1 = 0.6866	702.11 ± 0.59	–
328.15 K, x1 = 0.7	–	0.35 ± 0.009
328.15 K, x1 = 0.7973	702.19 ± 0.59	–
328.15 K, x1 = 0.8999	702.55 ± 0.59	–
333.15 K, x1 = 0.1016	–	0.514 ± 0.009
333.15 K, x1 = 0.1019	699 ± 0.61	–
333.15 K, x1 = 0.2002	–	0.489 ± 0.009
333.15 K, x1 = 0.2041	698.64 ± 0.61	–
333.15 K, x1 = 0.3003	–	0.459 ± 0.009
333.15 K, x1 = 0.3077	698.34 ± 0.6	–
333.15 K, x1 = 0.3999	698.05 ± 0.6	–
333.15 K, x1 = 0.4013	–	0.432 ± 0.009
333.15 K, x1 = 0.4992	–	0.399 ± 0.009
333.15 K, x1 = 0.5005	697.78 ± 0.6	–
333.15 K, x1 = 0.6005	–	0.371 ± 0.008
333.15 K, x1 = 0.6066	697.5 ± 0.6	–
333.15 K, x1 = 0.6866	697.32 ± 0.6	–
333.15 K, x1 = 0.7973	697.15 ± 0.6	–
338.15 K, x1 = 0.1016	–	0.489 ± 0.009
338.15 K, x1 = 0.1019	695.02 ± 0.61	–
338.15 K, x1 = 0.2002	–	0.466 ± 0.009
338.15 K, x1 = 0.2041	694.56 ± 0.61	–
338.15 K, x1 = 0.3003	–	0.438 ± 0.009
338.15 K, x1 = 0.3077	694.14 ± 0.61	–
338.15 K, x1 = 0.3999	693.73 ± 0.61	–
338.15 K, x1 = 0.4013	–	0.413 ± 0.009
338.15 K, x1 = 0.4992	–	0.382 ± 0.009
338.15 K, x1 = 0.5005	693.31 ± 0.61	–
338.15 K, x1 = 0.6005	–	0.359 ± 0.008
338.15 K, x1 = 0.6066	692.86 ± 0.61	–
338.15 K, x1 = 0.6866	692.58 ± 0.61	–
338.15 K, x1 = 0.7973	692.06 ± 0.61	–
343.15 K, x1 = 0.1016	–	0.466 ± 0.009
343.15 K, x1 = 0.1019	691.02 ± 0.62	–
343.15 K, x1 = 0.2002	–	0.445 ± 0.009
343.15 K, x1 = 0.2041	690.46 ± 0.62	–
343.15 K, x1 = 0.3003	–	0.42 ± 0.009
343.15 K, x1 = 0.3077	689.92 ± 0.62	–
343.15 K, x1 = 0.3999	689.38 ± 0.62	–
343.15 K, x1 = 0.4013	–	0.398 ± 0.009
343.15 K, x1 = 0.4992	–	0.369 ± 0.009
343.15 K, x1 = 0.5005	688.8 ± 0.62	–
343.15 K, x1 = 0.6066	688.18 ± 0.62	–
343.15 K, x1 = 0.6866	687.71 ± 0.62	–
343.15 K, x1 = 0.7973	686.92 ± 0.62	–
348.15 K, x1 = 0.1016	–	0.443 ± 0.009
348.15 K, x1 = 0.1019	687.01 ± 0.63	–
348.15 K, x1 = 0.2002	–	0.424 ± 0.009
348.15 K, x1 = 0.2041	686.34 ± 0.63	–
348.15 K, x1 = 0.3003	–	0.402 ± 0.009
348.15 K, x1 = 0.3077	685.67 ± 0.62	–
348.15 K, x1 = 0.3999	685.01 ± 0.62	–
348.15 K, x1 = 0.4013	–	0.383 ± 0.008
348.15 K, x1 = 0.5005	684.26 ± 0.62	–
348.15 K, x1 = 0.6066	683.43 ± 0.62	–
353.15 K, x1 = 0.1016	–	0.422 ± 0.009
353.15 K, x1 = 0.1019	682.96 ± 0.63	–
353.15 K, x1 = 0.2002	–	0.406 ± 0.009
353.15 K, x1 = 0.2041	682.18 ± 0.63	–
353.15 K, x1 = 0.3003	–	0.386 ± 0.008
353.15 K, x1 = 0.3077	681.38 ± 0.63	–
353.15 K, x1 = 0.3999	680.59 ± 0.63	–
353.15 K, x1 = 0.4013	–	0.372 ± 0.008
353.15 K, x1 = 0.5005	679.69 ± 0.63	–
353.15 K, x1 = 0.6066	678.65 ± 0.63	–
358.15 K, x1 = 0.1016	–	0.407 ± 0.009
358.15 K, x1 = 0.1019	678.89 ± 0.64	–
358.15 K, x1 = 0.2002	–	0.388 ± 0.008
358.15 K, x1 = 0.2041	678 ± 0.64	–
358.15 K, x1 = 0.3003	–	0.372 ± 0.008
358.15 K, x1 = 0.3077	677.06 ± 0.64	–
358.15 K, x1 = 0.3999	676.14 ± 0.64	–
363.15 K, x1 = 0.1019	674.79 ± 0.65	–
363.15 K, x1 = 0.2041	673.78 ± 0.65	–
363.15 K, x1 = 0.3077	672.71 ± 0.65	–
363.15 K, x1 = 0.3999	671.66 ± 0.65	–
